Measured values published in patent US6667313B1, “8-substituted-6-triflouromethyl-9-pyrido [3,2-G] quinoline compounds as androgen receptor modulators” (Ligand Pharmaceuticals Inc., priority 1999, dated 2003).
Where two headings read alike, the source gives them in different places.

Legend:
[1] = target: T1, human AR (Homo sapiens, UniProt P10275); test: Co-transfection assay, AR agonist, CV-1 cells; assay type: cell-based; conditions: for AR Agonist CV-1 Cells Efficacy (%): percent maximal response relative to reference agonist DHT
T1 sequence (P10275 1-920): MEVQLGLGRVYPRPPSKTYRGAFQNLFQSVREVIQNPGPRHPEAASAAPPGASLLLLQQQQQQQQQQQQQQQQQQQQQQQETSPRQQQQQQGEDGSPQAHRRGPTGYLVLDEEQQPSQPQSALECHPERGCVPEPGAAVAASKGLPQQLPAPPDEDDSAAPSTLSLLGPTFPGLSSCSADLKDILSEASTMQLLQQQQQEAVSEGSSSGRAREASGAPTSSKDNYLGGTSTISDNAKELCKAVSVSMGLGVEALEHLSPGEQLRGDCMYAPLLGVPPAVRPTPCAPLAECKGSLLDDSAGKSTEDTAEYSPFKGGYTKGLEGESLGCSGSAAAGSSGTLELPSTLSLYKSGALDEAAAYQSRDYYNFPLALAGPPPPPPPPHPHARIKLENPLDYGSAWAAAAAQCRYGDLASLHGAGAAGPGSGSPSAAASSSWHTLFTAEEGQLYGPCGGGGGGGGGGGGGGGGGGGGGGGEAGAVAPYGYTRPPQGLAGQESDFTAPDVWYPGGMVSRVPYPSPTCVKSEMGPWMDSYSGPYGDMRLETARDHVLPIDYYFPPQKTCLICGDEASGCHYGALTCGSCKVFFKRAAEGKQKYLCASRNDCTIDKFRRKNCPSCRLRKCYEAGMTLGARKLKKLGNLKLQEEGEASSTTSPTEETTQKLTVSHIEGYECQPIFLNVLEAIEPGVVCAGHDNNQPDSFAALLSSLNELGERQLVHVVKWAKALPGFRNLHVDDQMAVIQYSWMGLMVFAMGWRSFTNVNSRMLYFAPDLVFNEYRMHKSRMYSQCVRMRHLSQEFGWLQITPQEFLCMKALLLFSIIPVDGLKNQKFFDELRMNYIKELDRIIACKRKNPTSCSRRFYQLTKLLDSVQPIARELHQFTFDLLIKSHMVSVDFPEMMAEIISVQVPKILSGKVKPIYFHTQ
Text: (§1) The reporter plasmid, MTV-LUC, contains the cDNA for firefly luciferase (LUC) under control of themouse mammary tumor virus (MTV) long terminal repeat, a conditional promoter containing an androgen response element. See e.g., Berger et al. supra. In addition, pRS-β-Gal, coding for constitutive expression of E. coli β-galactosidase (β-Gal), was included as an internal control for evaluation of transfection efficiency and compound toxicity.
(§2) Three to four replicates were used for each sample.
(§3) After 40 hours, the cells were washed with PBS, lysed with a Triton X-100-based buffer and assayed for LUC and β-Gal activities using a luminometer or spectrophotometer, respectively. For each replicate, the normalized response (NR) was calculated as:
(§4) where β-Gal rate=β-Ga·1×10^−5/β-Gal incubation time.

[2] = target: T1, human AR; test: Co-transfection assay, AR antagonist, CV-1 cells (in presence of DHT); assay type: cell-based; conditions: for AR Antagonist CV-1 Cells Efficacy (%): percent maximal inhibition, DHT at EC50
Text: as §1, §2, §3, §4

[3] = target: T1, human AR; test: AR whole cell competitive binding assay (3H-DHT), COS-1 cells
Method: AR Binding: For the whole cell binding assay, COS-1 cells in 96-well microtiter plates containing DMEM-10% FBS were transfected as described above with the following plasmid DNA: pRShAR (2 ng/well), pRS-β-Gal (50 ng/well) and pGEM (48 ng/well). Six hours after transfection, media was removed, the cells were washed with PBS and fresh media was added. The next day, the media was changed to DMEM-serum free to remove any endogenous ligand that might be complexed with the receptor in the cells.
Three replicates were used for each sample. […] The remaining media was removed, the cells were washed three times with PBS to remove unbound ligand, and cells were lysed with a Triton X-100-based buffer.
For the saturation analyses, the difference between the total binding and the nonspecific binding, normalized by the β-Gal rate, was defined as specific binding.
After correcting for non-specific binding, IC50 values were determined. […] The IC50 value was determined graphically from a log-logit plot of the data. The Ki values were determined by application of the Cheng-Prusoff equivuation to the IC50 values, the labeled ligand concentration and the Kd of the labeled ligand.

SMILES	EC50 [1] [µM]	AR Agonist CV-1 Cells Efficacy (%) [1] [%]	IC50 [2] [µM]	AR Antagonist CV-1 Cells Efficacy (%) [2] [%]	Ki [3] [µM]	IC50 ([2]; read-out: AR Antagonist CV-1 Cells Potency) [µM]	Ki ([3]; COS-1 cells, 1 nM 3H-DHT, Cheng-Prusoff, read-out: AR Binding KI) [µM]
CCC1CCNc2cc3nc([S+](C)[O-])cc(C(F)(F)F)c3cc21 (racemic) [Compound 143, (R/S)-4-Ethyl-1,2,3,4-tetrahydro-8-methylsulfinyl-6-trifluoromethyl-9-pyrido[3.2-g]guinoline]	0.033 ± 0.003	37 ± 9	4.69	59	0.034	–	–
CCC1CCNc2cc3nc(C#N)cc(C(F)(F)F)c3cc21 (racemic) [Compound 129, (R/S)-8-Cyano-4-ethyl-1,2,3,4-tetrahydro-6-trifluoromethyl-9-pyrido[3,2-g]quinoline]	–	–	0.015 ± 0.005	56 ± 25	0.021	–	–
Cc1ccc(C(=O)N2c3cc4c(cc3C(C(F)(F)F)=CC2C#N)CCC(C)(C)N4)cc1 (racemic) [Compound 132, (R/S)-8-Cyano-1,2,3,4,8,9-hexahydro-2,2-dimethyl-9-p-toluoyl-6-trifluoromethyl-9-pyrido[3,2-g]quinoline]	–	–	–	89	–	0.147	0.863
CCC1CCNc2cc3nc(Cl)cc(C(F)(F)F)c3cc21 (racemic) [Compound 108, (R/S)-8-Chloro-4-ethyl-1,2,3,4-tetrahydro-6-trifluoromethyl-9-pyrido[3,2-g]guinoline]	0.073 ± 0.012	36 ± 5	0.05 ± 0.027	28 ± 8	0.081 ± 0.013	–	–
CCC1CCNc2cc3nc(Cl)c(F)c(C(F)(F)F)c3cc21 (racemic) [Compound 109, (R/S)-8-Chloro-4-ethyl-7-fluoro-1,2,3,4-tetrahydro-6-trifluoromethyl-9-pyrido[3,2-g]guinoline]	0.089 ± 0.026	35 ± 12	0.039 ± 0.023	51 ± 9	0.119 ± 0.065	–	–
CC1(C)CCc2cc3c(C(F)(F)F)c(F)c(Cl)nc3cc2N1 [Compound 107, 8-Chloro-7-fluoro-1,2,3,4-tetrahydro-2,2-dimethyl-6-trifluoromethyl-9-pyrido[3,2-g]quinoline]	1.03	29	0.017 ± 0.003	61 ± 8	0.103	–	–
CCC1CCNc2cc3nc(F)cc(C(F)(F)F)c3cc21 (racemic) [Compound 116, (R/S)-4-Ethyl-8-fluoro-1,2,3,4-tetrahydro-6-trifluoromethyl-9-pyrido[3,2-g]quinoline]	0.037 ± 0.009	60 ± 4	–	0	0.005	–	–
CCC1CCNc2cc3nccc(C(F)(F)F)c3cc21 (racemic) [Compound 125, (R/S)-4-Ethyl-1,2,3,4-tetrahydro-6-trifluoromethyl-9-pyrido[3,2-g]quinoline]	–	9 ± 7	0.056 ± 0.017	93 ± 1	0.093	–	–
CC1(C)CCc2cc3c(C(F)(F)F)c(F)c(Br)nc3cc2N1 [Compound 119, 8-Bromo-7-fluoro-1,2,3,4-tetrahydro-2,2-dimethyl-6-trifluoromethyl-9-pyrido[3,2-g]quinoline]	–	6	0.047 ± 0.027	73 ± 7	0.091 ± 0.068	–	–
C[S+]([O-])c1nc2cc3c(cc2c(C(F)(F)F)c1F)CCC(C)(C)N3 (racemic) [Compound 137, (R/S)-7-Fluoro-1,2,3,4-tetrahydro-2,2-dimethyl-6-trifluoromethyl-8-methylsulfinyl-9-pyrido[3,2-g]quinoline]	–	10	1.34	84	> 1	–	–
CC1(C)CCc2cc3c(cc2N1)N(C(=O)c1ccccc1)C(C#N)C=C3C(F)(F)F (racemic) [Compound 131, (R/S)-9-Benzoyl-8-cyano-1,2,3,4,8,9-hexahydro-2,2-dimethyl-6-trifluoromethyl-9-pyrido[3,2-g]quinoline]	–	0	0.063	91	> 1	–	–
Cc1c2c(cc3c(C(F)(F)F)c(F)c(Cl)nc13)C(C)CC(C)(C)N2 (centres unmarked) [Compound 106, 8-Chloro-7-fluoro-1,2,3,4-tetrahydro-2,2,4,10-tetramethyl-6-trifluoro-methyl-9-pyrido[3,2-g]quinoline]	–	4 ± 2	0.55 ± 0.015	77 ± 6	> 1	–	–
CCC1CCNc2cc3nc(C(F)(F)F)cc(C(F)(F)F)c3cc21 (racemic) [Compound 149, (R/S)-4-Ethyl-1,2,3,4-tetrahydro-6,8-di(trifluoromethyl)-9-pyrido[3,2-g]quinoline]	–	–	0.117 ± 0.031	–	0.301	–	–
CC1(C)CCc2cc3c(C(F)(F)F)c(F)cnc3cc2N1 [Compound 126, 7-Fluoro-1,2,3,4-tetrahydro-2,2-dimethyl-6-trifluoromethyl-9-pyrido[3,2-g]quinoline]	–	3 ± 5	0.181 ± 0.073	93 ± 4	0.058	–	–
Cc1c2c(cc3c(C(F)(F)F)c(F)c(F)nc13)C(C)CC(C)(C)N2 (centres unmarked) [Compound 115, 7,8-Difluoro-1,2,3,4-tetrahydro-2,2,4,10-tetramethyl-6-trifluoromethyl-9-pyrido[3,2-g]quinoline]	–	0	1.14	26	> 1	–	–
CCC1CCNc2cc3nc(SC)cc(C(F)(F)F)c3cc21 (racemic) [Compound 142, (R/S)-4-Ethyl-1,2,3,4-tetrahydro-8-methylthio-6-trifluoromethyl-9-pyrido[3,2-g]quinoline]	0.221 ± 0.108	30 ± 12	0.131 ± 0.064	60 ± 7	0.307	–	–
CCC1CCNc2cc3nc(Br)cc(C(F)(F)F)c3cc21 (racemic) [Compound 121, (R/S)-8-Bromo-4-ethyl-1,2,3,4-tetrahydro-6-trifluoromethyl-9-pyrido[3,2-g]quinoline]	0.022 ± 0.014	53 ± 15	–	8 ± 12	0.055	–	–
CCC1CCN(C)c2cc3nc(C#N)cc(C(F)(F)F)c3cc21 (racemic) [Compound 130, (R/S)-8-Cyano-4-ethyl-1,2,3,4-tetrahydro-1-methyl-6-trifluoromethyl-9-pyrido[3,2-g]quinoline]	–	2	0.782 ± 0.546	89 ± 1	0.787	–	–
CC1(C)CCc2cc3c(C(F)(F)F)c(F)c(F)nc3cc2N1 [Compound 113, 7,8-Difluoro-1,2,3,4-tetrahydro-2,2-dimethyl-6-trifluoromethyl-9-pyrido[3,2-g]quinoline]	–	12	0.5	37	0.152	–	–
